Values of other authors, collected in patent US20190314382A1, “COMPOUNDS AND PHARMACEUTICAL COMPOSITIONS THEREOF FOR THE TREATMENT OF INFLAMMATORY DISEASES” (Galapagos NV, priority 2016, published 2019).

Test system: MRL/lpr mice
Details: cited from earlier work

For `N#C/C(=C\c1ccc(O)c(O)c1)C(=O)NCc1ccccc1` [tyrphostin AG490], the “renal expression of monocyte chemotactic protein (MCP)-1, interferon (IFN)-γ and class II MHC” value is given as “significantly inhibited” and the “renal infiltration of T cells and macrophages” value is given as “reduced”.
